The target of this experiment is LRRK2 (Homo sapiens, UniProt Q5S007). The experiment is described as follows: LRRK2-LRRK2 G2019S-Assay (LanthaScreen Eu Kinase Binding Assay). The settings on record: 5 nM LRRK2, 10 nM tracer 236, 2 nM EU-Anti-GST antibody, 1 h at RT; read-out: LRRK2 Activities: IC50. In outline:
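In a TR-FRET tracer displacement assay, LRRK2 or its mutants at 5 nM were mixed with 2 nM Eu-anti-GST antibody and 10 nM tracer 236 in kinase buffer A for 1 h at RT. The 665/615 nm emission ratio was plotted against inhibitor concentration, and IC50 came from a variable-slope sigmoidal fit.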
Sequence of LRRK2 (Q5S007 970-2527 limits assumed): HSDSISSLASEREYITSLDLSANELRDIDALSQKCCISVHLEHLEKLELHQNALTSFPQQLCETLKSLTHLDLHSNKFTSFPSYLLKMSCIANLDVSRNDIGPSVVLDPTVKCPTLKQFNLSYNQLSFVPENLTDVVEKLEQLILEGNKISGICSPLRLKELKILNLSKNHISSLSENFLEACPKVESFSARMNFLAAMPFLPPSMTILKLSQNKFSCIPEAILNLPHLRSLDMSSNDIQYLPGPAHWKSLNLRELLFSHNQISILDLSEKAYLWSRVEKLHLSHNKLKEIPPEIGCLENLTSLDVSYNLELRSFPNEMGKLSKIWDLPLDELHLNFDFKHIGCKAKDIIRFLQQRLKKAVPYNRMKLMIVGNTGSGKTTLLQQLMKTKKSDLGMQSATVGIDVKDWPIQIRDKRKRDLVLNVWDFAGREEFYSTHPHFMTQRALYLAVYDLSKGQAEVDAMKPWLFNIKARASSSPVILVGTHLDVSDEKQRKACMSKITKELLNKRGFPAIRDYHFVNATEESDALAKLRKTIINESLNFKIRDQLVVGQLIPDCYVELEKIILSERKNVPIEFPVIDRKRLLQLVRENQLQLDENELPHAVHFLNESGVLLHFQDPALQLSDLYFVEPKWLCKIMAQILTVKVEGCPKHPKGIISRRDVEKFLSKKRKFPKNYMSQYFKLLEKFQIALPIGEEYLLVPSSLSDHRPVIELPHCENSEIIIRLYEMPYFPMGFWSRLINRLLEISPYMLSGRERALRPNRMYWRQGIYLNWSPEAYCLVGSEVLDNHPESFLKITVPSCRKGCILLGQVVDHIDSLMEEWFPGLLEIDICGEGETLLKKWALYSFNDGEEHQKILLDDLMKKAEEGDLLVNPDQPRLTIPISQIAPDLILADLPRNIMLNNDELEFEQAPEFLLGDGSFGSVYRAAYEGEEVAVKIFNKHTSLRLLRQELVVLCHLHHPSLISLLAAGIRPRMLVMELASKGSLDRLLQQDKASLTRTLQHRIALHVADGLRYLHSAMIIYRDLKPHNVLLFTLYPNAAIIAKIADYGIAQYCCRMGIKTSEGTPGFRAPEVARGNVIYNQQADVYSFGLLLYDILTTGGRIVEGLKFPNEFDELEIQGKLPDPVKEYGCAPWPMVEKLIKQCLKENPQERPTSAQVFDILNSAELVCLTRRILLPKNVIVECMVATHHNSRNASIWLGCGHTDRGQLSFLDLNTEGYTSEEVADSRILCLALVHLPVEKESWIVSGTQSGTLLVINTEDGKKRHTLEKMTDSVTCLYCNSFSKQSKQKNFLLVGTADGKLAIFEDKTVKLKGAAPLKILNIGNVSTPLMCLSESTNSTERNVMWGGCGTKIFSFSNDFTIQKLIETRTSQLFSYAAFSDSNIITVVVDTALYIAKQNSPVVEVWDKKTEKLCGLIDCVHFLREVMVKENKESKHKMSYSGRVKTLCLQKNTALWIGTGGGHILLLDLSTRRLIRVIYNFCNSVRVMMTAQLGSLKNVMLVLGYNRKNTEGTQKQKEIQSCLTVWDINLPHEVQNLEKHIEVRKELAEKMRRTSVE
Consider `COc1cc(N2CCOC2=O)ccc1Nc1nc2ccc(S(C)(=O)=O)cc2c2cn[nH]c12` [Example 240, 3-(3-methoxy-4-((8-(methylsulfonyl)-3H-pyrazolo[3,4-c]quinolin-4-yl)amino)phenyl)oxazolidin-2-one], for which the concentration for half-maximal inhibition (IC50) is 100 to 1000 nM. Next, `COCCn1ncc(Nc2nc3cccc(OC)c3c3cn[nH]c23)c1Cl` [Example 241, N-(5-chloro-1-(2-methoxyethyl)-1H-pyrazol-4-yl)-9-methoxy-3H-pyrazolo[3,4-c]quinolin-4-amine]: 10 to 100 nM. For the molecule `COCCn1ncc(Nc2nc3ccc(S(C)(=O)=O)cc3c3cn[nH]c23)c1Cl` [Example 242, N-(5-chloro-1-(2-methoxyethyl)-1H-pyrazol-4-yl)-8-(methylsulfonyl)-3H-pyrazolo[3,4-c]quinolin-4-amine], the IC50 fell in the range of 10 to 100 nM. Take `COCCn1ncc(Nc2nc3cc(S(C)(=O)=O)ccc3c3cn[nH]c23)c1Cl` [Example 243, N-(5-chloro-1-(2-methoxyethyl)-1H-pyrazol-4-yl)-7-(methylsulfonyl)-3H-pyrazolo[3,4-c]quinolin-4-amine]: the IC50 lay in the range of 10 to 100 nM. In the case of `Cc1c(Nc2nc3cc(S(C)(=O)=O)ccc3c3cn[nH]c23)cnn1C(C)C` [Example 244, N-(1-isopropyl-5-methyl-1H-pyrazol-4-yl)-7-(methylsulfonyl)-3H-pyrazolo[3,4-c]quinolin-4-amine], the IC50 is 10 to 100 nM. As for `CC(C)n1cc(Nc2nc3ccc(S(C)(=O)=O)cc3c3cn[nH]c23)c(C(N)=O)n1` [Example 250, 1-isopropyl-4-((8-(methylsulfonyl)-3H-pyrazolo[3,4-c]quinolin-4-yl)amino)-1H-pyrazole-3-carboxamide], the figure is 100 to 1000 nM. Next, `CC(C)n1ncc(Nc2nc3ccc(S(C)(=O)=O)cc3c3cn[nH]c23)c1C(N)=O` [Example 251, 1-isopropyl-4-((8-(methylsulfonyl)-3H-pyrazolo[3,4-c]quinolin-4-yl)amino)-1H-pyrazole-5-carboxamide]: 100 to 1000 nM; `COc1cccc2nc(Nc3cnn(C4CCNCC4)c3Cl)c3[nH]ncc3c12` [Example 254, N-(5-chloro-1-(piperidin-4-yl)-1H-pyrazol-4-yl)-9-methoxy-3H-pyrazolo[3,4-c]quinolin-4-amine]: below 10 nM. Consider `COc1cccc2nc(Nc3cnn(C4CCOCC4)c3Cl)c3[nH]ncc3c12` [Example 255, N-(5-chloro-1-(tetrahydro-2H-pyran-4-yl)-1H-pyrazol-4-yl)-9-methoxy-3H-pyrazolo[3,4-c]quinolin-4-amine], for which the IC50 was below 10 nM. As for `CS(=O)(=O)c1ccc2nc(Nc3cnn(C4CCOCC4)c3Cl)c3[nH]ncc3c2c1` [Example 265, N-(5-chloro-1-(tetrahydro-2H-pyran-4-yl)-1H-pyrazol-4-yl)-8-(methylsulfonyl)-3H-pyrazolo[3,4-c]quinolin-4-amine], the IC50 is below 10 nM. For `COc1cccc2nc(Nc3cnn(C(C)C)c3C(N)=O)c3[nH]ncc3c12` [Example 266, 1-isopropyl-4-((9-methoxy-3H-pyrazolo[3,4-c]quinolin-4-yl)amino)-1H-pyrazole-5-carboxamide], the half-maximal inhibitory concentration (IC50) is 10 to 100 nM. Next, `COCCn1cc(Nc2nc3cccc(OC)c3c3cn[nH]c23)c(C(F)(F)F)n1` [Example 267, 9-methoxy-N-(1-(2-methoxyethyl)-3-(trifluoromethyl)-1H-pyrazol-4-yl)-3H-pyrazolo[3,4-c]quinolin-4-amine]: 100 to 1000 nM. Consider `COCCn1ncc(Nc2nc3cccc(OC)c3c3cn[nH]c23)c1C(F)(F)F` [Example 268, 9-methoxy-N-(1-(2-methoxyethyl)-5-(trifluoromethyl)-1H-pyrazol-4-yl)-3H-pyrazolo[3,4-c]quinolin-4-amine], for which the IC50 fell in the range of 100 to 1000 nM. As for `Cc1nn(CCF)cc1Nc1nc2ccc(S(C)(=O)=O)cc2c2cn[nH]c12` [Example 269, N-(1-(2-fluoroethyl)-3-methyl-1H-pyrazol-4-yl)-8-(methylsulfonyl)-3H-pyrazolo[3,4-c]quinolin-4-amine], the figure is below 10 nM.

For the origin of these results see patent US10752624B2, “Kinase inhibitors” (Origenis GmbH, priority 2012, dated 2020).
